≈ marks a conversion by molar mass, not a printed value. Read-outs that look alike come from different tables or passages of the source.
Key:
Bacteroides vulgates = assay: in vitro MIC test (Table I); assay type: cell-based; conditions: 24 h
Protocol: (§1) In Table I, below, the results of in vitro MIC tests are summarized. For this test each organism is inoculated in a series of test tubes of CP-63,517 to determine the minimal concentration of the antibiotic in mcg/ml which inhibits the growth of the organism over a period of 24 hours (MIC).

Bordatella bronchi = assay: in vitro MIC test (Table I); assay type: cell-based; conditions: 24 h
Protocol: as §1

Corynebacterium pyogenes = assay: in vitro MIC test (Table I); assay type: cell-based; conditions: 24 hours
Protocol: as §1

Erysip. rhusio = assay: in vitro MIC test (Table I); assay type: cell-based; conditions: strain 04A005; 24 hours
Protocol: as §1

F. necrophorum = assay: in vitro MIC test (Table I); assay type: cell-based; conditions: Fusobacterium necrophorum; strain 84C004; 24 hours
Protocol: as §1

Fusobacterium plauti = assay: in vitro MIC test (Table I); assay type: cell-based; conditions: Flavonifractor plautii; strain 84G001; 24 hours
Protocol: as §1

Haemophilus parahemol. = assay: in vitro MIC test (Table I); assay type: cell-based; conditions: strain 54B002, 24 hours
Protocol: as §1

L. catenaforme = assay: in vitro MIC test (Table I); assay type: cell-based; conditions: strain 09C001; 24 hours
Protocol: as §1

Lactobacillus casei = assay: in vitro MIC test (Table I); assay type: cell-based; conditions: Lacticaseibacillus casei; strain 09B001; 24 hours
Protocol: as §1

Moraxella bovis = assay: in vitro MIC test (Table I); assay type: cell-based; conditions: strain 93A001, 24 hours
Protocol: as §1

P. haemolytica = assay: in vitro MIC test (Table I); assay type: cell-based; conditions: Mannheimia haemolytica, 24 h
Protocol: as §1

Pasteurella multocida = assay: in vitro MIC test (Table I); assay type: cell-based; conditions: 24 h
Protocol: as §1

Peptococcus sp. = assay: in vitro MIC test (Table I); assay type: cell-based; conditions: strain 17B001; 24 hours
Protocol: as §1

Staphylococcus aureus = assay: in vitro MIC test (Table I); assay type: cell-based; conditions: 24 h
Protocol: as §1

[1] = system: Staphylococcus epidermidis; assay: in vitro MIC test (Table I); assay type: cell-based; conditions: 24 h
Protocol: as §1

Streptococcus pyogenes = assay: in vitro MIC test (Table I); assay type: cell-based; conditions: strain 020054, 24 hours
Protocol: as §1

Treponema hyodysenteriae = assay: in vitro MIC test (Table I); assay type: cell-based; conditions: for MIC: 24 hours
Protocol: as §1

rumen fluid = assay: in vitro rumen technique, propionic acid production; design: species or system calf; conditions: for increase in propionic acid: comparison with Salinomycin; for increase in production of propionic acid over control: comparison with Monensin
Protocol: The value of animal feeds generally has been determined directly by feeding the animal. British Pat. No. 1,197,826 details an in vitro rumen technique whereby the changes occurring in feeds brought about by microorganisms are measured more readily and with great accuracy in the evaluation of animal feeds. This technique involves the use of an apparatus in which the digestive processes of the animals are conducted and studied in vitro. The animal feeds, rumen inoculum and various growth promotants are introduced into and withdrawn from a laboratory unit under carefully controlled conditions and the changes taken place are studied critically and progressively during the consumption of the feed by the microorganisms. […] The change in propionic acid content is expressed as percent of the propionic acid content found in the control rumen fluid. Long term in vivo feeding studies are used to show a reliable correlation between propionic acid increase in the rumen fluid and improved animal performance.
Rumen fluid is collected from a fistulated calf which is fed on a commercial fattening ration plus hay. The rumen fluid is immediately filtered through cheese cloth, and 10 ml added to a 50 ml conical flask containing 400 mg of standard substrate (68% corn starch +17% cellulose +15% extracted soybean meal), 10 ml of a pH 6.8 buffer and the test compound. The flasks are gassed with oxygen free nitrogen for about two minutes, and incubated in a shaking water bath at 39° C. for about 16 hours. All tests are conducted in triplicate.
After incubation, 5 ml of the sample is mixed with 1 ml of 25% metaphosphoric acid. After 10 minutes 0.25 ml of formic acid is added and the mixture centrifuged at 1500 RPM for 10 minutes. Samples are then analyzed by gas-liquid chromatography by the method of D. W. Kellog, J. Dairy Science, 52, 1690 (1969). Peak heights for acetic, propionic and butyric acids are determined for samples from untreated and treated incubation flasks.

## COC1CCC(OC2CC3(CC(O)C(C)C(C(C)C=C(C)C(=O)C(C)CC(C)C(=O)O)O3)OC2(C)C2CCC(C)C3(OC(C4OC(O)(CO)C(C)CC4C)CC3C)O2)OC1C (centres unmarked) [CP-63,517]
Bacteroides vulgates
  MIC: 25 µg/mL (≈ 28.8 µM)
Bordatella bronchi; strain 73A006
  MIC: 0.39 µg/mL (≈ 0.45 µM)
Bordatella bronchi; strain 73A016
  MIC: 6.25 µg/mL (≈ 7.21 µM)
Corynebacterium pyogenes; Trueperella pyogenes, strain 11D001, read-out: MIC
  MIC: 12.5 µg/mL (≈ 14.4 µM)
Corynebacterium pyogenes; strain 11D002
  MIC: 12.5 µg/mL (≈ 14.4 µM)
Corynebacterium pyogenes; strain 11D003
  MIC: 12.5 µg/mL (≈ 14.4 µM)
Erysip. rhusio
  MIC: 0.39 µg/mL (≈ 0.45 µM)
F. necrophorum
  MIC: 25 µg/mL (≈ 28.8 µM)
Fusobacterium plauti
  MIC: 0.39 µg/mL (≈ 0.45 µM)
Haemophilus parahemol.
  MIC: 25 µg/mL (≈ 28.8 µM)
L. catenaforme
  MIC: 0.39 µg/mL (≈ 0.45 µM)
Lactobacillus casei
  MIC: 0.39 µg/mL (≈ 0.45 µM)
Moraxella bovis
  MIC: 50 µg/mL (≈ 57.7 µM)
P. haemolytica; strain 59B018
  MIC: 0.39 µg/mL (≈ 0.45 µM)
P. haemolytica; strain 59B046
  MIC: 0.39 µg/mL (≈ 0.45 µM)
P. haemolytica; strain 59B061
  MIC: 50 µg/mL (≈ 57.7 µM)
Pasteurella multocida; strain 59A013
  MIC: 50 µg/mL (≈ 57.7 µM)
Pasteurella multocida; strain 59A048
  MIC: 0.39 µg/mL (≈ 0.45 µM)
Peptococcus sp.
  MIC: ≤ 0.1 µg/mL
Staphylococcus aureus; strain 01A005
  MIC: 0.39 µg/mL (≈ 0.45 µM)
Staphylococcus aureus; strain 01A052
  MIC: 0.39 µg/mL (≈ 0.45 µM)
Staphylococcus aureus; strain 01A106
  MIC: 0.78 µg/mL (≈ 0.9 µM)
Staphylococcus aureus; strain 01A110
  MIC: 0.39 µg/mL (≈ 0.45 µM)
Staphylococcus aureus; strain 01A539
  MIC: 0.78 µg/mL (≈ 0.9 µM)
Staphylococcus aureus; strain 01A543
  MIC: 3.12 µg/mL (≈ 3.6 µM)
[1]; strain 01B087
  MIC: 0.78 µg/mL (≈ 0.9 µM)
[1]; strain 01B111
  MIC: 0.39 µg/mL (≈ 0.45 µM)
Streptococcus pyogenes
  MIC: 0.1 µg/mL (≈ 0.115 µM)
Treponema hyodysenteriae; Brachyspira hyodysenteriae, strain 94A001, read-out: MIC
  MIC: 6.25 µg/mL (≈ 7.21 µM)
Treponema hyodysenteriae; in vitro
  activity against Treponema hyodysenteriae: possesses activity against Treponema hyodysenteriae
Treponema hyodysenteriae; strain 94A002
  MIC: 6.25 µg/mL (≈ 7.21 µM)
Rumen fluid; 5 μg/ml
  increase in propionic acid: about 66%
Rumen fluid; 20 μg/ml
  increase in propionic acid: about 86%
Rumen fluid; 10 micrograms per milliliter (10 μg/ml)
  increase in production of propionic acid over control: 95%
Rumen fluid; 20 micrograms per milliliter
  increase in production of propionic acid over control: 96%
